Assay results from patent US20230104936A1, “TRPML MODULATORS” (Casma Therapeutics, Inc., priority 2019, published 2023).

Tested on: TFEB
Test: TFEB nuclear translocation assay, HeLa wt cells
Type: cell-based
Details: 2 hrs compound treatment, Table 1 does not say HeLa wt or TRPML1 KO
How it was run: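 TFEB translocation into the nucleus of HeLa wt cells is scored by high-content immunofluorescence after 2 hrs of compound treatment at 37° C, reported as AC50.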

For CN(C)S(=O)(=O)c1ccc(S(=O)(=O)Nc2ccccc2N2CCC3(CCOC3)CC2)cc1 [Compound A-422, N1,N1-dimethyl-N4-(2-{2-oxa-8-azaspiro[4.5]decan-8-yl}phenyl)benzene-1,4-disulfonamide], the AC50 (Homo sapiens, HeLa, 2 h) was ≤ 2000 nM.

In the case of CN1C(=O)c2cc(F)ccc2C12CCN(c1ccccc1NS(=O)(=O)c1ccc(S(=O)(=O)N(C)C)cc1)CC2 [Compound A-301, N4-(2-{5-fluoro-2-methyl-3-oxo-2,3-dihydrospiro[isoindole-1,4′-piperidin]-1′-yl}phenyl)-N1,N1-dimethylbenzene-1,4-disulfonamide], the AC50 (Homo sapiens, HeLa, 2 h) is reported as ≤ 2000 nM.

In the case of C[C@@H]1CN(CC2CCN(c3c(F)cccc3NS(=O)(=O)c3ccc(S(=O)(=O)N(C)C)cc3)CC2)C[C@@H](C)O1 [Compound A-818, N4-[2-(4-{[(2R,6R)-2,6-dimethylmorpholin-4-yl]methyl}piperidin-1-yl)-3-fluorophenyl]-N1,N1-dimethylbenzene-1,4-disulfonamide], the AC50 (Homo sapiens, HeLa, 2 h) is reported as ≤ 2000 nM.

With COCC1(C)CCN(c2ccccc2NS(=O)(=O)c2ccc3c(c2)COCC3)CC1 [Compound A-625, N-{2-[4-(methoxymethyl)-4-methylpiperidin-1-yl]phenyl}-3,4-dihydro-1H-2-benzopyran-7-sulfonamide] the AC50 (Homo sapiens, HeLa, 2 h) was ≤ 2000 nM.

In the case of C[C@@H]1COC[C@@H](C)N1CC1CN(c2c(F)cccc2NS(=O)(=O)c2ccc(S(=O)(=O)N(C)C)cc2)C1 (stereo in doubt) [Compound A-915, rel-N4-[2-(3-{[(3R,5R)-3,5-dimethylmorpholin-4-yl]methyl}azetidin-1-yl)-3-fluorophenyl]-N1,N1-dimethylbenzene-1,4-disulfonamide], the AC50 (Homo sapiens, HeLa, 2 h) is reported as ≥ 10000 nM.

In the case of CN(C)S(=O)(=O)c1ccc(S(=O)(=O)Cc2cc(Cl)ccc2N2CCOCC2)cc1 [Compound A-312, 4-{[5-chloro-2-(morpholin-4-yl)phenyl]methanesulfonyl}-N,N-dimethylbenzene-1-sulfonamide], the AC50 (Homo sapiens, HeLa, 2 h) is reported as ≥ 10000 nM.

CN(C)S(=O)(=O)c1ccc(S(=O)(=O)Nc2ccccc2N2CCN(C3CCCC3)CC2)cc1 [Compound A-453, N4-[2-(4-cyclopentylpiperazin-1-yl)phenyl]-N1,N1-dimethylbenzene-1,4-disulfonamide] gave an AC50 (Homo sapiens, HeLa, 2 h) of 2010 to 8000 nM.

For CN(C)S(=O)(=O)c1ccc(S(=O)(=O)Nc2ccccc2N2CCC(c3ccccc3F)CC2)cc1 [Compound A-10, N4-{2-[4-(2-fluorophenyl)piperidin-1-yl]phenyl}-N1,N1-dimethylbenzene-1,4-disulfonamide], the AC50 (Homo sapiens, HeLa, 2 h) was ≤ 2000 nM.

In the case of COCC1(C)CCN(c2ccccc2NS(=O)(=O)c2ccc(C(C)(C)C)cc2)CC1 [Compound A-483, 4-tert-butyl-N-{2-[4-(methoxymethyl)-4-methylpiperidin-1-yl]phenyl}benzene-1-sulfonamide], the AC50 (Homo sapiens, HeLa, 2 h) is reported as ≤ 2000 nM.

For CN1CCC2(CCN(c3ccccc3NS(=O)(=O)c3ccc(S(C)(=O)=O)cc3)CC2)c2ccccc21 [Compound A-492, 4-methanesulfonyl-N-(2-{1′-methyl-2′,3′-dihydro-1′H-spiro[piperidine-4,4′-quinolin]-1-yl}phenyl)benzene-1-sulfonamide], the AC50 (Homo sapiens, HeLa, 2 h) was ≤ 2000 nM.

For CN(C)C1CC2(CCN(c3ccccc3NS(=O)(=O)c3ccc(S(=O)(=O)N(C)C)cc3)CC2)c2ccccc21 (stereo not shown) [Compound A-295, N4-{2-[3-(dimethylamino)-2,3-dihydrospiro[indene-1,4′-piperidin]-1′-yl]phenyl}-N1,N1-dimethylbenzene-1,4-disulfonamide], the AC50 (Homo sapiens, HeLa, 2 h) was 2010 to 8000 nM.

CC(c1cccc(F)c1N1CCC(CN2C3CCC2COC3)CC1)S(=O)(=O)c1ccc(S(=O)(=O)N(C)C)cc1 (stereo not shown) [Compound A-839, 4-(1-{3-fluoro-2-[4-({3-oxa-8-azabicyclo[3.2.1]octan-8-yl}methyl)piperidin-1-yl]phenyl}ethanesulfonyl)-N,N-dimethylbenzene-1-sulfonamide] was tested, and the AC50 was ≤ 2000 nM.

In the case of CN(C)S(=O)(=O)c1ccc(S(=O)(=O)Nc2ccccc2N2CCC3(COC(C)(C)C3)CC2=O)cc1 (stereo not shown) [Compound A-735, N4-(2-{3,3-dimethyl-7-oxo-2-oxa-8-azaspiro[4.5]decan-8-yl}phenyl)-N1,N1-dimethylbenzene-1,4-disulfonamide], the AC50 (Homo sapiens, HeLa, 2 h) is reported as ≥ 10000 nM.

With CN(C)S(=O)(=O)c1ccc(S(=O)(=O)Nc2ccccc2N2CCN(C(=O)C(O)c3ccccc3)CC2)cc1 (stereo not shown) [Compound A-335, N4-{2-[4-(2-hydroxy-2-phenylacetyl)piperazin-1-yl]phenyl}-N1,N1-dimethylbenzene-1,4-disulfonamide] the AC50 (Homo sapiens, HeLa, 2 h) was ≥ 10000 nM.

Work on CN(C)S(=O)(=O)c1ccc(S(=O)(=O)Nc2ccccc2N2CCC(C(C)(C)O)CC2)cc1 [Compound A-725, N4-{2-[4-(2-hydroxypropan-2-yl)piperidin-1-yl]phenyl}-N1,N1-dimethylbenzene-1,4-disulfonamide] yielded an AC50 (Homo sapiens, HeLa, 2 h) of 8010 to 9990 nM.

In the case of CC(c1cncc(F)c1N1CCC(CN2CCC(F)(F)CC2)CC1)S(=O)(=O)c1ccc(S(=O)(=O)N(C)C)cc1 (stereo not shown) [Compound A-996, 4-[1-(4-{4-[(4,4-difluoropiperidin-1-yl)methyl]piperidin-1-yl}-5-fluoropyridin-3-yl)ethanesulfonyl]-N,N-dimethylbenzene-1-sulfonamide], the AC50 (Homo sapiens, HeLa, 2 h) is reported as ≤ 2000 nM.

CN(C)S(=O)(=O)c1ccc(S(=O)(=O)Nc2cccc(F)c2N2CCC3(CC2)COC(C)(C)C3)cc1 [Compound A-615] was tested, and the AC50 (Homo sapiens, HeLa, 2 h) was ≤ 2000 nM.

With Cc1ccc(S(=O)(=O)Nc2ccccc2N2CCC(O)(c3ccc(F)cn3)CC2)cc1 [Compound A-408, N-{2-[4-(5-fluoropyridin-2-yl)-4-hydroxypiperidin-1-yl]phenyl}-4-methylbenzene-1-sulfonamide] the AC50 (Homo sapiens, HeLa, 2 h) was ≥ 10000 nM.

COCC1(C)CCN(c2ccccc2NS(=O)(=O)Cc2ccc(F)cc2)CC1 [Compound A-580, 1-(4-fluorophenyl)-N-{2-[4-(methoxymethyl)-4-methylpiperidin-1-yl]phenyl}methanesulfonamide] showed an AC50 (Homo sapiens, HeLa, 2 h) of 8010 to 9990 nM.

In the case of CC(c1cccc(F)c1N1CCCCC1)S(=O)(=O)c1ccc(S2(=O)=NCCC2)cc1 (single isomer, unassigned) [Compound A-980, 1-(4-((1-(3-fluoro-2-(piperidin-1-yl)phenyl)ethyl)sulfonyl)phenyl)-4,5-dihydro-3H-isothiazole 1-oxide], the AC50 is reported as ≥ 10000 nM.

In the case of Cc1ccc(S(=O)(=O)N2Cc3cccc(N4CCOCC4)c3C2)cc1 [Compound A-820, 2-(4-methylbenzenesulfonyl)-4-(morpholin-4-yl)-2,3-dihydro-1H-isoindole], the AC50 (Homo sapiens, HeLa, 2 h) is reported as ≥ 10000 nM.

With CC(c1cccc(F)c1N1CCOCC1)S(=O)(=O)c1ccc2c(c1)CCS2(=O)=O (stereo not shown) [Compound A-957, 5-{1-[3-fluoro-2-(morpholin-4-yl)phenyl]ethanesulfonyl}-2,3-dihydro-1λ^6-benzothiophene-1,1-dione] the AC50 (Homo sapiens, HeLa, 2 h) was ≥ 10000 nM.

For CN(C)S(=O)(=O)c1ccc(S(=O)(=O)Nc2ccccc2N2CCC3(CC2)COC(C)(C)C3)cc1 [Compound A-440, N4-(2-{3,3-dimethyl-2-oxa-8-azaspiro[4.5]decan-8-yl}phenyl)-N1,N1-dimethylbenzene-1,4-disulfonamide], the AC50 (Homo sapiens, HeLa, 2 h) was ≤ 2000 nM.

In the case of COCC1(C)CCN(c2ccccc2NS(=O)(=O)Cc2ccccc2F)CC1 [Compound A-579, 1-(2-fluorophenyl)-N-{2-[4-(methoxymethyl)-4-methylpiperidin-1-yl]phenyl}methanesulfonamide], the AC50 (Homo sapiens, HeLa, 2 h) is reported as 2010 to 8000 nM.

COCC1(C)CCN(c2ccccc2NS(=O)(=O)c2ccc3c(c2)CC(C)(C)O3)CC1 [Compound A-613, N-{2-[4-(methoxymethyl)-4-methylpiperidin-1-yl]phenyl}-2,2-dimethyl-2,3-dihydro-1-benzofuran-5-sulfonamide] was tested, and the AC50 (Homo sapiens, HeLa, 2 h) was ≤ 2000 nM.

CN(C)S(=O)(=O)c1ccc(S(=O)(=O)Nc2ccccc2N2CCCC23CCCOC3)cc1 (stereo not shown) [Compound A-499, N1,N1-dimethyl-N4-(2-{7-oxa-1-azaspiro[4.5]decan-1-yl}phenyl)benzene-1,4-disulfonamide] was tested, and the AC50 (Homo sapiens, HeLa, 2 h) was ≤ 2000 nM.

For CC(c1ccccc1N1CCC(c2c(F)cccc2F)CC1)S(=O)(=O)c1ccc(S(=O)(=O)N(C)C)cc1 (stereo not shown) [Compound A-254, 4-((1-(2-(4-(2,6-difluorophenyl)piperidin-1-yl)phenyl)ethyl)sulfonyl)-N,N-dimethylbenzenesulfonamide], the AC50 (Homo sapiens, HeLa, 2 h) was ≤ 2000 nM.

C[C@@H]1CN(CC2CCN(c3c(F)cccc3NS(=O)(=O)c3ccc(S(C)(=N)=O)cc3)CC2)C[C@H](C)O1 (single isomer, unassigned) [Compound A-847] was tested, and the AC50 was ≥ 10000 nM.

With CN(C)S(=O)(=O)c1ccc(S(=O)(=O)Nc2cccc(Cl)c2N2CCCCC2)cc1 [Compound A-652, N4-[3-chloro-2-(piperidin-1-yl)phenyl]-N1,N1-dimethylbenzene-1,4-disulfonamide] the AC50 (Homo sapiens, HeLa, 2 h) was ≤ 2000 nM.

Compound CN(C)S(=O)(=O)c1ccc(S(=O)(=O)Nc2ccccc2N2CCN(C(=O)[C@@]34CCC[C@@H]3C4)CC2)cc1 (racemic) [Compound A-477, rac-N4-(2-{4-[(1R,5R)-bicyclo[3.1.0]hexane-1-carbonyl]piperazin-1-yl}phenyl)-N1,N1-dimethylbenzene-1,4-disulfonamide] has an AC50 (Homo sapiens, HeLa, 2 h) of 2010 to 8000 nM.

With CN(C)S(=O)(=O)c1ccc(S(=O)(=O)Nc2nn(C)cc2C2CCN(c3ccc(Cl)cc3F)CC2)cc1 [Compound A-55, N1-(4-(1-(4-chloro-2-fluorophenyl)piperidin-4-yl)-1-methyl-1H-pyrazol-3-yl)-N4,N4-dimethylbenzene-1,4-disulfonamide] the AC50 (Homo sapiens, HeLa, 2 h) was ≤ 2000 nM.

COc1ccc(S(=O)(=O)Nc2ccccc2N2CCC(c3ccc(F)cc3F)CC2)nc1 [Compound A-118, N-{2-[4-(2,4-difluorophenyl)piperidin-1-yl]phenyl}-5-methoxypyridine-2-sulfonamide] gave an AC50 (Homo sapiens, HeLa, 2 h) of 2010 to 8000 nM.

CC1(C)CC2(CCN(c3ccccc3NS(=O)(=O)c3ccc4c(c3)COC4)CC2)CO1 [Compound A-714, N-(2-{3,3-dimethyl-2-oxa-8-azaspiro[4.5]decan-8-yl}phenyl)-1,3-dihydro-2-benzofuran-5-sulfonamide] gave an AC50 (Homo sapiens, HeLa, 2 h) of 8010 to 9990 nM.

With CN(C)S(=O)(=O)c1ccc(S(=O)(=O)Nc2ccccc2N2CCN(C(=O)C34CC5CC(CC(C5)C3)C4)CC2)cc1 [Compound A-399, N4-{2-[4-(adamantane-1-carbonyl)piperazin-1-yl]phenyl}-N1,N1-dimethylbenzene-1,4-disulfonamide] the AC50 (Homo sapiens, HeLa, 2 h) was ≤ 2000 nM.
